Test [1] addresses Tyrosine-protein kinase JAK1 (Homo sapiens, UniProt P23458). The experiment in a line: Inhibition of recombinant JAK1 (unknown origin).
The target in test [2] is T1, Tyrosine-protein kinase JAK2 (Homo sapiens, UniProt O60674). The experiment in a line: Inhibition of recombinant JAK2 (unknown origin).
Test [3] deals with Non-receptor tyrosine-protein kinase TYK2 (Homo sapiens, UniProt P29597). The experiment in a line: Inhibition of recombinant Tyk2 (unknown origin).
The target in test [4] is Proto-oncogene tyrosine-protein kinase Src (Homo sapiens, UniProt P12931). The experiment in a line: Inhibition of recombinant c-Src (unknown origin).
Test [5] deals with Tyrosine-protein kinase Lyn (Homo sapiens, UniProt P07948). The experiment in a line: Inhibition of recombinant Lyn (unknown origin).
Test [6] addresses Tyrosine-protein kinase HCK (Homo sapiens, UniProt P08631). Briefly: Inhibition of recombinant Hck (unknown origin).
Test [7] deals with PANC-1. Briefly: Antiproliferative activity against human PANC-1 cells assessed as cell growth inhibition measured after 42 hrs by MTS assay. In kind it is functional, cell-based. As to conditions: PANC-1, 42 h.
The subject of test [8] is MIA PaCa-2. Briefly: Antiproliferative activity against human MIA PaCa-2 cells assessed as cell growth inhibition measured after 42 hrs by MTS assay. As to conditions: MIA PaCa-2, 42 h. It is filed as functional, cell-based. (Tetrazolium dyes change colour on reduction, which living cells bring about.)
Test [9] concerns BXPC-3. The experiment in a line: Antiproliferative activity against human BXPC-3 cells assessed as cell growth inhibition measured after 42 hrs by MTS assay. It is filed as functional, cell-based. As to conditions: BXPC-3, 42 h.
The subject of test [10] is PC-3. Briefly: Cytotoxicity against human PC-3 cells assessed as cell growth inhibition by MTT assay. It is filed as functional, cell-based.
For test [11], the system named is MCF7. Briefly: Cytotoxicity against human MCF7 cells assessed as cell growth inhibition by MTT assay. It is filed as functional, cell-based.
Test [12] has as its system LoVo. Briefly: Cytotoxicity against human LoVo cells assessed as cell growth inhibition by MTT assay. In kind it is functional, cell-based.
The subject of test [13] is LNCaP. Briefly: Cytotoxicity against human LNCaP cells assessed as cell growth inhibition by MTT assay. It is filed as functional, cell-based.
The test system of test [14] is DU-145. The experiment in a line: Cytotoxicity against human DU-145 cells assessed as cell growth inhibition by MTT assay. It is filed as functional, cell-based.
Test [15] has as its target T2, Receptor-type tyrosine-protein kinase FLT3 (Homo sapiens, UniProt P36888).
T2 sequence (P36888 whole entry): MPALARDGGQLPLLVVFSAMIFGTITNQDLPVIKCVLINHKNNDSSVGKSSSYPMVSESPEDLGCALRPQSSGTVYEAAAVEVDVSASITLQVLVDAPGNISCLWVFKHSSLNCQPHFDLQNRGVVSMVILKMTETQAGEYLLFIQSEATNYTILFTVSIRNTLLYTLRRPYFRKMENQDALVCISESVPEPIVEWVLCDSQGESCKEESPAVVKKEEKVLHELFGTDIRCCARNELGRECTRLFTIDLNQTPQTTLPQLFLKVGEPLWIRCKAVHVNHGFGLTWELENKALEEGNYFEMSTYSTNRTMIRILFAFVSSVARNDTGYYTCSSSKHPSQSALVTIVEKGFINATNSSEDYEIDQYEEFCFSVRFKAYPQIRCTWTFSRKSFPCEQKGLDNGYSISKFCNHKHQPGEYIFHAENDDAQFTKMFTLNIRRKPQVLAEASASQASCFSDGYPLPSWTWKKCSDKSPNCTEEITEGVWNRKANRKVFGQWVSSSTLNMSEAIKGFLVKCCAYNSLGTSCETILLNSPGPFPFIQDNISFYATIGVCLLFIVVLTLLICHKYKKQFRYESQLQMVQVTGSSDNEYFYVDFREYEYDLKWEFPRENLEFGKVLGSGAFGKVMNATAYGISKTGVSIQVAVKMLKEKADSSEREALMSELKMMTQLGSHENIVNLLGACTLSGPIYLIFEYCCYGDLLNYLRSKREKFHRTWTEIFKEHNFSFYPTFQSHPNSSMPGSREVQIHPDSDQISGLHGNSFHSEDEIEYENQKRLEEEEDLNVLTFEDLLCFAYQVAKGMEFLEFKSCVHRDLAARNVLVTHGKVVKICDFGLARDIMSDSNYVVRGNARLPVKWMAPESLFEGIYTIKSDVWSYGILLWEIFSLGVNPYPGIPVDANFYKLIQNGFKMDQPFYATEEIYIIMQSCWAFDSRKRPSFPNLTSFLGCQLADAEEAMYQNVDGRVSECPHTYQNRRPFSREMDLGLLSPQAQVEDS
Briefly: Inhibition of recombinant FLT3 (unknown origin) by HTRF assay.

Test [16] relates to MV4-11. The experiment in a line: Cytotoxicity in human MV4-11 cells assessed as cell growth inhibition incubated for 48 hrs by propidium iodide staining based flow cytometry assay. In kind it is functional.
In test [17] the target is T2, Receptor-type tyrosine-protein kinase FLT3. Briefly: Inhibition of FLT3 (unknown origin).
In test [18] the test system is HT-29. Briefly: Antiproliferative activity against human HT-29 cells assessed as cell growth inhibition measured after 72 hrs by tetrazolium staining based assay. It is filed as functional. The following applies: HT-29, 72 h.
Test [19] has as its target Hepatocyte growth factor receptor (Homo sapiens, UniProt P08581). The experiment in a line: Inhibition of c-met (unknown origin) by TR-FRET assay. For orientation: In TR-FRET formats the signal depends on donor and acceptor labels being close together.
Test [20] has as its target ALK tyrosine kinase receptor (Homo sapiens, UniProt Q9UM73). Briefly: Inhibition of ALK (unknown origin) by TR-FRET assay.
Test [21] concerns the target T1, Tyrosine-protein kinase JAK2. Briefly: Inhibition of JAK2 (unknown origin) by TR-FRET assay.
Test [22] in a line: Inhibition of starfish oocyte CDK1/Cyclin B using histone H1 as substrate incubated for 10 mins in presence of [gamma-32P]ATP by scintillation counter analysis. Also on record: species or system Marthasterias glacialis.
The target in test [23] is Cyclin-dependent kinase 5/CDK5 activator 1 (Homo sapiens, UniProt Q00535). The experiment in a line: Inhibition of GST-fused CDK5/p25 (unknown origin). In kind it is protein-complex assay.
Cyclin-dependent kinase 5/CDK5 activator 1, sequence (Q00535 whole entry, the tested form may be a part): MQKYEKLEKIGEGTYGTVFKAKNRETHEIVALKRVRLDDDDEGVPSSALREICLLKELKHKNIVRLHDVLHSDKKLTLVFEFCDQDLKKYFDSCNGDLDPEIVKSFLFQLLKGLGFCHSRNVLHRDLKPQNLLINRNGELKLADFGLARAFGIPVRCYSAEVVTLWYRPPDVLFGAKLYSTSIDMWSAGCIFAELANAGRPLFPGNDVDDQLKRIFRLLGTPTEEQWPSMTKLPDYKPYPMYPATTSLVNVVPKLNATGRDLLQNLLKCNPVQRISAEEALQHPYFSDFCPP
Cyclin-dependent kinase 5/CDK5 activator 1, sequence (Q15078 whole entry, further chain, the tested form may be a part): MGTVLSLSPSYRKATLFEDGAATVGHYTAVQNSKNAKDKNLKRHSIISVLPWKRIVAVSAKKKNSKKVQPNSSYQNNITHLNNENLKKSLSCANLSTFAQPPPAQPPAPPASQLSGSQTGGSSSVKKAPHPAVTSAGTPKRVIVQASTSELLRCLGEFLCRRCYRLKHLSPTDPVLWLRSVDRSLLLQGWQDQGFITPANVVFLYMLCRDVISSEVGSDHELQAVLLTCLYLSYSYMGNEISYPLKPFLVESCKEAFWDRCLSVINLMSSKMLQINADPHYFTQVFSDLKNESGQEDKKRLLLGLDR
Test [24] concerns the target Glycogen synthase kinase-3 (Sus scrofa, UniProt B2LUN4+I6LNT8). Briefly: Inhibition of porcine brain GSK-3alpha/beta incubated for 30 mins in presence of [33p]-gamma ATP by scintillation counter analysis.
Test [25] has as its system K562. The experiment in a line: Antiproliferative activity against human K562 cells assessed as cell growth inhibition measured after 72 hrs by MTT assay. The following applies: K562, 72 h. In kind it is functional, cell-based.
Test [26] has as its system OCI-AML2. The experiment in a line: Antiproliferative activity against human OCI-AML2 cells assessed as cell growth inhibition measured after 72 hrs by MTT assay. It is filed as functional, cell-based. As to conditions: OCI-AML2, 72 h.
For test [27], the system named is K562. Briefly: Antiproliferative activity against imatinib treated human K562 cells assessed as cell growth inhibition measured after 72 hrs by MTT assay. In kind it is functional, cell-based. The following applies: K562, 72 h.
The test system of test [28] is OCI-AML2. The experiment in a line: Antiproliferative activity against imatinib and Ara-C resistant human OCI-AML2 cells assessed as cell growth inhibition measured after 72 hrs by MTT assay. In kind it is functional, cell-based. The following applies: OCI-AML2, 72 h.
A short description of test [29]: Inhibition of CDK2/cyclin E (unknown origin). Also noted: species or system Homo sapiens.
In test [30] the test system is HL-60. The experiment in a line: Cytotoxicity against human HL-60 cells assessed as cell growth inhibition measured after 24 hrs by MTT assay. As to conditions: HL-60, 24 h, read-out: LC50.
Test [31] concerns U-87 MG. Briefly: Cytotoxicity against human U87 cells assessed as cell growth inhibition measured after 24 hrs by MTT assay.
Test [32] concerns HeLa. The experiment in a line: Cytotoxicity against human HeLa cells assessed as cell growth inhibition measured after 24 hrs by SRB assay. On the technique in general: In SRB staining, fixed cells bind dye roughly in proportion to their protein.
The test system of test [33] is U-118-MG. The experiment in a line: cells. As to conditions: Homo sapiens, 24 h.
Description: Cytotoxicity against human U-118-MG cells assessed as cell growth inhibition measured after 24 hrs by MTT assay

Molecules are shown by their SMILES. Converted amounts (≈) assume the structure as drawn.

Usually IC50 stands for the concentration that gives 50% inhibition. The term GI50 denotes the concentration giving 50% growth inhibition.

T1 sequence (O60674 whole entry): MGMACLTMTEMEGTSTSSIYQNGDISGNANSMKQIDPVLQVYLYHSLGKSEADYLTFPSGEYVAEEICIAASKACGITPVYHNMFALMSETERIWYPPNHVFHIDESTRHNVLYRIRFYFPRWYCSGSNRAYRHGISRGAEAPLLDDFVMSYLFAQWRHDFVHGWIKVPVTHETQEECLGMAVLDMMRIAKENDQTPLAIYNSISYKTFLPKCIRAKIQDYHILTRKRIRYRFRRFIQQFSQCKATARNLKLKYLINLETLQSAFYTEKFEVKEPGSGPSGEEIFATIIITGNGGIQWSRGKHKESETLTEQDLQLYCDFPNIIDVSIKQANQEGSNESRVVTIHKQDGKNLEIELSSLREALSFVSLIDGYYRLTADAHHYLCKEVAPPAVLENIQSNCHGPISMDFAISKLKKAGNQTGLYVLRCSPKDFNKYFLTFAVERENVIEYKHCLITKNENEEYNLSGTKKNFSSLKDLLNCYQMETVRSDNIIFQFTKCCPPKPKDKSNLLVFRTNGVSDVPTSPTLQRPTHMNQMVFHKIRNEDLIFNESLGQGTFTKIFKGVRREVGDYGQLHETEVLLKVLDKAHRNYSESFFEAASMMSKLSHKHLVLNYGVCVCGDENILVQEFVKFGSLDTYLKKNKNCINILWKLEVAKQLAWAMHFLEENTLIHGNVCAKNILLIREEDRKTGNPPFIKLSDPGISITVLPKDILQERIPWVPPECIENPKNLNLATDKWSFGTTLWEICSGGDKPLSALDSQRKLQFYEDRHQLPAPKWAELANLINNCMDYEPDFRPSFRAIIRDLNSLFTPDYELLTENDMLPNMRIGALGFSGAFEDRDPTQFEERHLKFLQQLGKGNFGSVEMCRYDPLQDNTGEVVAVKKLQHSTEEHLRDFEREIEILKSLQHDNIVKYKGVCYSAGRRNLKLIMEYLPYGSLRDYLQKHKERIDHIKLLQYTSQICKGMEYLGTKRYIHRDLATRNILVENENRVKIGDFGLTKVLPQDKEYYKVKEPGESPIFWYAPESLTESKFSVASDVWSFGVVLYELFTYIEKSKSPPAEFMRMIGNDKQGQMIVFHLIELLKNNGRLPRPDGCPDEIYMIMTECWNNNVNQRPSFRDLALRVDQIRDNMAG
Hepatocyte growth factor receptor, sequence (P08581 whole entry): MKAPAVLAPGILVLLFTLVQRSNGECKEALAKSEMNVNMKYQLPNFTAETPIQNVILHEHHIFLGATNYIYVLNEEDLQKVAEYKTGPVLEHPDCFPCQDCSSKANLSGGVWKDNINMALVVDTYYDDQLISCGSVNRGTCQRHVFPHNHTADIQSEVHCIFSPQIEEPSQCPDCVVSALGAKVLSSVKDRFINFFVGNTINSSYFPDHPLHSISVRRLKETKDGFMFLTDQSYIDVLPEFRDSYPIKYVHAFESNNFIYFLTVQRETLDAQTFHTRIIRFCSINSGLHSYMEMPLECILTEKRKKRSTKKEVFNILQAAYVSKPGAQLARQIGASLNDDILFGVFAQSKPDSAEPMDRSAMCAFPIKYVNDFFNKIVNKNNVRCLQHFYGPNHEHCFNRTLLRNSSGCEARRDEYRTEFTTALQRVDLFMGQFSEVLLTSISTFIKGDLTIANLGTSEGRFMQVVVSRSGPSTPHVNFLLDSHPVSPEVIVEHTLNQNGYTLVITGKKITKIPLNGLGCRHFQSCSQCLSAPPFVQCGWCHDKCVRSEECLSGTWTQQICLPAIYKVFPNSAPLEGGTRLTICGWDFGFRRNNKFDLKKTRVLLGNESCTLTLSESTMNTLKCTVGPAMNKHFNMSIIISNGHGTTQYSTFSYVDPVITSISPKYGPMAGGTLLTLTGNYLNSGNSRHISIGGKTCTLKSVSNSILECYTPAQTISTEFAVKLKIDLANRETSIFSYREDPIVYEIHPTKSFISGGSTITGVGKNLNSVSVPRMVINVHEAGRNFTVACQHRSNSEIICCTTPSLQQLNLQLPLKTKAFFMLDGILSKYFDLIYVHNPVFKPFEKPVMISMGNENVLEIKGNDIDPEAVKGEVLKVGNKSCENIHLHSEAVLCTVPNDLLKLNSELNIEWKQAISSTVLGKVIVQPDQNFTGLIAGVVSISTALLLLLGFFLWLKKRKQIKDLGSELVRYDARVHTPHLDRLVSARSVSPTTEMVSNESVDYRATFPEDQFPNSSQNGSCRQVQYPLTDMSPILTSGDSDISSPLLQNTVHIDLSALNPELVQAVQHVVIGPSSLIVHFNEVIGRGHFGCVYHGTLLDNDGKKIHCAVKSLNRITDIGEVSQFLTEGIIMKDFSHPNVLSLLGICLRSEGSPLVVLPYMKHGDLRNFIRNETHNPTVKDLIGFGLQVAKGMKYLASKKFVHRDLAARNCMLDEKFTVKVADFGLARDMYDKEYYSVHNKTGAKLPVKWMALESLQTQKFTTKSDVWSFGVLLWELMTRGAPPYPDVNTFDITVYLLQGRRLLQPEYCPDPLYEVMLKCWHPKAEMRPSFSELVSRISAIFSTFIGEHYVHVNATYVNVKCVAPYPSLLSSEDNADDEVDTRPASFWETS
ALK tyrosine kinase receptor, sequence (Q9UM73 whole entry): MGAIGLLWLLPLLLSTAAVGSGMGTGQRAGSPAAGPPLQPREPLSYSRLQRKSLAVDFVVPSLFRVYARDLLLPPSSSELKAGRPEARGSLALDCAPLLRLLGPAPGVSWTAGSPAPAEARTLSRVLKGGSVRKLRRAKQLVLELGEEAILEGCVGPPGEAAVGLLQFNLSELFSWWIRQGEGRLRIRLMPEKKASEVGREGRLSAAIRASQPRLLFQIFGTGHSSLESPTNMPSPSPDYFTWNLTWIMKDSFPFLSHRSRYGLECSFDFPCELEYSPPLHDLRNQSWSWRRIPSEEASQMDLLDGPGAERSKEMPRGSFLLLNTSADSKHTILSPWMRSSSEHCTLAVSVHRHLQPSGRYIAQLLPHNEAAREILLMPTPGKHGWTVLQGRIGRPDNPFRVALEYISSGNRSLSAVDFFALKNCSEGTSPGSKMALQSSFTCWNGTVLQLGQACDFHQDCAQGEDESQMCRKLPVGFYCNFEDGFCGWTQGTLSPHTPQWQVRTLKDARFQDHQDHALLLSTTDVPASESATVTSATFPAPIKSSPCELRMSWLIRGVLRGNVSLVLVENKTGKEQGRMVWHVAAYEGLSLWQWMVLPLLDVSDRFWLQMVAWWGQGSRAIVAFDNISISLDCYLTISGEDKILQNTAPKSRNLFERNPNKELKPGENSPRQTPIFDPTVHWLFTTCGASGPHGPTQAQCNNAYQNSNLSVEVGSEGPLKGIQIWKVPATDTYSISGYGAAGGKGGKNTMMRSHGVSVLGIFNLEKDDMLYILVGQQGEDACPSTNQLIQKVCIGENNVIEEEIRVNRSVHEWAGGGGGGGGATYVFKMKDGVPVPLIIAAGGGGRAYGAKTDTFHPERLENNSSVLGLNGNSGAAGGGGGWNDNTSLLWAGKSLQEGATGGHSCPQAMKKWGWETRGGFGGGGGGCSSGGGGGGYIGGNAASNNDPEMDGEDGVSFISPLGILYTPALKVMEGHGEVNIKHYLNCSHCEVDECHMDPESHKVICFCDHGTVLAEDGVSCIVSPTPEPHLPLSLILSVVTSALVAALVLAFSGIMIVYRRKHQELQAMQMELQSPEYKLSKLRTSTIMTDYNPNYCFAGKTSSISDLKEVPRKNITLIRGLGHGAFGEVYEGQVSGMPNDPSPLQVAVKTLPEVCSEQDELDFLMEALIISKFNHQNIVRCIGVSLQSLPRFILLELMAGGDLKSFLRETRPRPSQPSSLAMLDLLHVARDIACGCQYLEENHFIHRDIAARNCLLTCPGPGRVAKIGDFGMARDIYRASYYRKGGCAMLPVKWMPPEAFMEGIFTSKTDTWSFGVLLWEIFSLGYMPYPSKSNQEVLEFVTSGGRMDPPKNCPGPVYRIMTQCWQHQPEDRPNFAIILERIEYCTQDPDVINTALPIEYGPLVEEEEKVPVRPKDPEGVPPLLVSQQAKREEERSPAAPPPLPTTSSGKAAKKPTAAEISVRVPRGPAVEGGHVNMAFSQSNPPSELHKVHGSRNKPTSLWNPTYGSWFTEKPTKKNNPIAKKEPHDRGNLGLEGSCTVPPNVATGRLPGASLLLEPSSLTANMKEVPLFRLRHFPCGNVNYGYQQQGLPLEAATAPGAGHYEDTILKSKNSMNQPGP

`COc1ccc2c(c1)/C(=C1/Nc3ccccc3/C1=N\OCC(O)CO)C(=O)N2` (stereo unspecified): the IC50 in test [1], in test [2], in test [3], in test [4], in [5] and in test [6] was 0.0107 µM each time. The IC50 in [7], in test [8] and in test [9] was 0.76 µM throughout.

On to `CCN1C(=O)/C(=C2\Nc3ccccc3\C2=N/O)c2ccccc21`, for which the IC50 was 13.4 µM in test [10]; 6.72 µM in test [11]; 8.49 µM in [12]; 10.3 µM in [13]; 7.44 µM in test [14].

On to `O=C1Nc2ccc(C(=O)O)cc2/C1=C1/Nc2ccccc2/C1=N\O`, for which the IC50 in [15] and in test [17] was 0.00789 µM each time. In addition, in test [16], the GI50 is more than 1 µM.

Consider `O=C1Nc2ccc(C(=O)N3CCCCC3)cc2/C1=C1/Nc2ccccc2/C1=N\O`, for which the IC50 in [18] is 4.22 µM; in test [19], more than 10 µM; in test [20] it was more than 10 µM; in [21], more than 10 µM.

As for `CN1C(=O)/C(=C2\Nc3ccccc3\C2=N/O)c2ccccc21`, the IC50 was 73 µM in test [22]; 58.6 µM in [11]; more than 100 µM in [12]; 68.9 µM in test [13]; more than 100 µM in test [23]; more than 100 µM in [24].

Consider `O=C1Nc2ccc(NC(=O)C(c3ccccc3)c3ccccc3)cc2/C1=C1/Nc2ccccc2/C1=N\O`, for which the IC50 was determined as 2.91 µM in test [25], 2.42 µM in test [26], 3.65 µM in test [27] and 2.36 µM in [28].

For the molecule `O=C1Nc2ccccc2/C1=C1/Nc2ccccc2C1=O` [INDIRUBIN], the IC50 in test [29] was found to be 7.5 µM; in test [31], 12.5 µM; in test [32] it was 40 µM; in test [33] it was 12.5 µM. Moreover, in [30], the CC50 was 98.1 µg/mL (≈ 374 µM).

These data come from ChEMBL document CHEMBL5149994, “Anticancer potential of indirubins in medicinal chemistry: Biological activity, structural modification, and structure-activity relationship” (Eur J Med Chem, 2021).
